How the values were obtained:
[1] = Solubility of nonionic organic compound in water; format: physicochemical; conditions: for solubility in 100 g of water: 25° C.; for Solubility: in 100 g of water at 25° C.
Excerpt: (3) Method of Measuring Solubility of Nonionic Organic Compound

[2] = Surface tension of water containing nonionic organic compound; format: physicochemical; conditions: 25° C.; for Surface tension: water containing 0.001% by weight of the nonionic organic compound
Excerpt: (4) Method of Measuring Surface Tension of Water Containing Nonionic Organic Compound

Row | Molecule | solubility in 100 g of water [1] | Solubility [1] | surface tension of water containing 0.001% by weight of the nonionic organic compound [2] | Surface tension [2]
1 | CCCCCCCCC(O)CO (stereo not drawn) [1,2-decanediol] | 0.055 g | 0.055 g/100 g | 55 mN/m | 55 mN/m
2 | CCCCCCCCCCC(O)CO (stereo not drawn) [1,2-dodecanediol] | 0.001 g | 0.001 g/100 g | 47.1 mN/m | 47.1 mN/m
3 | CCCCC(O)CO (stereo not drawn) [1,2-hexanediol, reference compound] |  | ≧6 g/100 g |  | 71.2 mN/m
4 | CCCCCCC(O)CO (stereo not drawn) [1,2-octanediol] | 0.20 g | 0.2 g/100 g | 65 mN/m | 65 mN/m
5 | OCCCCCCCCO [1,8-octanediol, reference compound] |  | 1 g/100 g |  | 70.7 mN/m
6 | CCCCC(CC)COCC(O)CO (stereo not drawn) [2-ethylhexyl monoglyceryl ether] | 0.15 g | 0.15 g/100 g | 62 mN/m | 62 mN/m

Now from value to molecule:

Row | solubility in 100 g of water [1] | Solubility [1] | surface tension of water containing 0.001% by weight of the nonionic organic compound [2] | Surface tension [2] | Molecule
7 | 0.05 g | 0.05 g/100 g | 57.8 mN/m | 57.8 mN/m | CC(C)CCCCCCCOCC(O)CO (stereo not drawn) [Isodecyl monoglyceryl ether]
8 |  |  | 65 mN/m | 65 mN/m | Decanoic acid monogriceride
9 | 0.005 g | 0.12 g/100 g | 63 mN/m | 63 mN/m | Lauric acid monogriceride
